Assay type in all cases: cell-based, human
Test [1] has as its system fibroblasts (cellular iron content). Briefly: Ferrozine-based iron quantification in fibroblasts. The settings on record: for iron content: control cells. Here is the method:
(§1) Skin fibroblasts were grown in Dulbecco's Modified Eagle Medium (DMEM, Life technologies) medium supplemented with 10% fetal bovine serum (FBS), 2 mM L-glutamine, 2.5 mM pyruvate, 100 μg/ml streptomycin, 100 U/ml penicillin at 37° C. For treatment with ferric ammonium citrate (FAC), 80% confluent cells were incubated for 72 h with or without 100 μM FAC in serum-free DMEM (i.e. Tf free). For drug treatment, 80% confluent cells were incubated in DMEM+10% FBS supplemented with 25 μM artesunate (Sigma) in DMSO for 48 h, 25 μM CoA (Sigma) for 72 h and 5 mM DCA (Sigma) for 72 h.
(§2) Total iron contents were measured using a ferrozine-based iron assay modified from (Barbeito et al., 2010). For imaging flow cytometry, fibroblasts were starved for one hour in FBS-free DMEM medium, treated with 5 mM EDTA for harvesting them without disrupting TfR1 located at cell surface, as trypsin does, washed 3 times with cold PBS and then labelled with anti-TfR1 antibodies (A24) (Moura et al., 2004) for 1 h on ice to avoid TfR1 internalization. In this condition, only membrane-bound TfR1 is quantified. Secondary staining was performed using Alexa fluor 488 goat anti-mouse antibody (Life technology) for 30 min on ice. Cells were washed and stained with Hoechst for 5 min in a total volume of 50 μl and acquisitions were directly performed. Cell analysis was based on Hoechst-positive signal, allowing to select living cells. Samples were run on an Imagestream ISX mkII (Amnis Corp, Millipore, Seattle, WA) that combines flow cytometry with detailed cell-imaging and functional studies and a 40× magnification was used for all acquisitions. Data were acquired using the INSPIRE software (Amnis Corp) and analyzed using the IDEAS™ software (version 6.2 Amnis Corp) on at least 20,000 events. Spectral compensation was performed using singly stained samples. A specific mask was designed for analysis of the membrane localization of TfR1. This mask was the result of a full bright field mask minus a 5 pixels erode and 1 pixel dilate bright mask resulting in doughnuts-like mask. Results were expressed as mean pixel intensity value which is the intensity normalized to surface area.

The test system of test [2] is TfR1. Briefly: TfR1 palmitoylation assay in cultured skin fibroblasts. The method, then:
as §1
TfR1 palmitoylation in cultured skin fibroblasts was modified from (Ba et al., 2012). Briefly, cells were lysed on ice in a DTT-free cell lysis buffer and endogenous TfR1 was immunoprecipitated overnight with mouse anti-TfR1 antibody (Life Technologies, 136890) with protein G magnetic beads (BioRad). After washing with PBS, beads were successively incubated 2 h with 50 mM N-ethylmaleimide (NEM) at room temperature, 1 M hydroxylamine and 50 mM HPDP-Biotin (Thermo) in dark for 2 hours. Samples were run in 12% acrylamide gel and biotin-labeled TfR1 level was determined by immunoblotting in non-reducing conditions using Chemidoc technology thanks to a CCD camera (BioRad) and ImageLab software v3.0 (BioRad).

Test [3] has as its system TfR1. As to the kind of experiment: Western blot of TfR1 steady-state level in fibroblasts. The following applies: for steady state level of TfR1: CoA 25 μM 72 h, DCA 5 mM 72 h, artesunate 25 μM 48 h. The method, then:
as §1
(§3) Cultured skin fibroblasts were harvested on ice by scraping in reducing (2 μM dithiothreitol, DTT, denaturation at 95° C. for 5 min) or non-reducing cell lysis buffer (no DTT, no heat denaturation). Western bot analysis was performed on 20 μg of whole-cell protein extracts or mitochondrial-enriched fractions in 12% acrylamide gel or 4-15% gel gradient. Immunodetections were performed in PBS with 5% or 1% milk, 0.05% Tween20 (SIGMA) using the following antibodies: rabbit anti-SOD1 (Abcam, ab16831), rabbit anti-SOD2 (Abcam, ab13533), mouse anti-TfR1 (Invitrogen, 13-6800), rabbit anti-TfR1 (Abcam, 108985), rabbit anti-ferritin (Abcam, ab75973), rabbit anti-IRP1 (Abcam, ab126595), rabbit anti-IRP2 (Abcam, ab80339), rabbit anti-FBXL5 (Abcam, ab140175), rabbit anti-FDXR (Abcam, 204310), rabbit anti-FXN (Protein tech, 14147-1-AP), rabbit anti-PDH E2 subunit (Abcam, ab172617), rabbit anti-lipoic acid (Abcam, ab58724), goat anti-Biotin (Thermo, 31852), mouse anti-VDAC/Porine (Abcam, ab14734)
(§4) mouse anti-ATP5a (Abcam, ab14748), mouse anti-Vinculin (abeam, ab130007), rabbit anti-TFAM (Proteintech, 19998-1-AP), rabbit ATP8 (Proteintech, 26723-1-AP) and mouse anti-GAPDH antibodies (ab8245). Blots were incubated with fluorescent secondary antibodies (IRDye 800CW/680LT Goat anti-rabbit or anti-mouse IgG (LI-COR)) or HRP-conjugated secondary antibodies (goat anti-rabbit IgG HRP (Abcam), goat anti-mouse IgG HRP (Abcam) or donkey anti-goat IgG HRP (Santa Cruz)) before ECL-based detection (SuperSignal West Dura, Thermo Scientific). Signals captured either with the Odyssey Infrared Imaging System using Image Studio Lite v5.2 (LI-COR Biosciences) or with CDD camera using Image Lab v3.0 (BioRad).

Test [4] has as its system membrane-bound TfR1. As to the kind of experiment: Imaging flow cytometry (Imagestream) of membrane-bound TfR1 in fibroblasts. The method, then:
as §1
Fibroblasts were starved for one hour in FBS-free DMEM medium (i.e. Tf-free), treated with 5 mM EDTA for harvesting them without disrupting TfR1 located at cell surface, as trypsin does, and then labelled with anti-TfR1 antibody at 4° C. to avoid TfR1 internalization. In this condition only membrane-bound TfR1 is quantified. Cell sorting was based on Hoechst-positive signal, allowing to select living cells.
as §2, with “Samples were run on an Imagestream ISX mkII (Amnis Corp, Millipore, Seattle, WA) that combines flow cytometry with detailed cell-imaging and functional studies and a 40× magnification was used for all acquisitions.” left out, “Spectral compensation was performed using singly stained samples. A specific mask was designed for analysis of the membrane localization of TfR1. This mask was the result of a full bright field mask minus a 5 pixels erode and 1 pixel dilate bright mask resulting in doughnuts-like mask.” left out
A general note: Flow cytometry measures light scatter and fluorescence of single cells or particles in a stream.

Test [5] deals with PBMC (iron content). Briefly: Ferrozine-based iron quantification in PBMC grown in high iron medium. The following applies: 40 h in high iron medium (100 μM FAC), artesunate 25 μM. The method, then: PBMC were isolated from 8 ml blood samples by density centrifugation using Ficoll (GE Healthcare) and grown 2 h in regular DMEM before treatment with 100 μM FAC for different time.
as §2, with “Samples were run on an Imagestream ISX mkII (Amnis Corp, Millipore, Seattle, WA) that combines flow cytometry with detailed cell-imaging and functional studies and a 40× magnification was used for all acquisitions.” left out, “Spectral compensation was performed using singly stained samples. A specific mask was designed for analysis of the membrane localization of TfR1. This mask was the result of a full bright field mask minus a 5 pixels erode and 1 pixel dilate bright mask resulting in doughnuts-like mask.” left out

Test [6] has as its system fibroblasts (Tf recycling). Briefly: Transferrin (Tf) recycling by spinning-disk confocal microscopy in fibroblasts. The method, then: as §1
For Tf recycling, fibroblasts were spread at 30% confluence onto micro-slides glass bottom (IBIDI) 24 h before experiment. Cells were then starved in FBS-free DMEM media for 1 h before add Tf-RED (12.5 μg/mL) for 30 min at 37° C. Cells were washed with PBS and then incubated for in regular media for live-imaging acquisition using spinning disk confocal microscopy (ZEISS Microscopy). Slides were placed un incubation chamber at 37° C. under 5% CO2. At least 20 cells were acquired by condition using 63× oil immersion objective lens with a picture of cell/min during 40 min using Zen software. The nuclear region (NR) was defined using Icy software v1.9. […] PNROI masks were then applied on RED channel by spot detector plugin to obtain quantitative mean fluorescence particle intensity. […]

Test [7] has as its system ferritin, FBXL5, SOD2, IRP1-2. As to the kind of experiment: Western blot of proteins involved in iron homeostasis and antioxidant defense in fibroblasts. The following applies: artesunate 25 μM for 48 h. Here is the method:
as §1, §3, §4
For orientation: In western blotting, separated proteins are transferred to a membrane and probed.

The mark [8] stands for this setting: FRDA fibroblasts, artesunate 25 μM for 48 h.
Where [9] appears, read: control cells, artesunate 25 μM for 48 h.

Turning to `CC(C)(COP(=O)(O)OP(=O)(O)OC[C@H]1O[C@@H](n2cnc3c(N)ncnc32)[C@H](O)[C@@H]1OP(=O)(O)O)[C@@H](O)C(=O)NCCC(=O)NCCS` [CoA, [[(2R,3S,4R,5R)-5-(6-aminopurin-9-yl)-4-hydroxy-3-phosphonooxyoxolan-2-yl]methoxy-hydroxyphosphoryl][(3R)-3-hydroxy-2,2-dimethyl-4-oxo-4-[[3-oxo-3-(2-sulfanylethylamino)propyl]amino]butyl]hydrogen phosphate], the “decrease of cellular iron content” value in test [1] (FRDA fibroblasts, high iron conditions (+FAC), CoA 25 μM for 72 h) is 1.6-2.4 fold. Besides, the “increase of TfR1 palmitoylation” value in test [2] (FRDA fibroblasts, CoA 25 μM for 72 h) is reported as 2.1 to 3.2 fold. Further, in test [3] (FRDA fibroblasts), the “steady state level of TfR1” value was “decreased”. In test [4] (summary statement in discussion, conditions not given), the “membrane TfR1 accumulation” value is recorded as “reduced”.
Consider `C[C@H]1[C@H](OC(=O)CCC(=O)O)O[C@@H]2O[C@@]3(C)CC[C@H]4[C@H](C)CC[C@@H]1[C@@]24OO3` [artesunate, (3R,5aS,6R,8aS,9R,10S,12R,12aR)-Decahydro-3,6,9-trimetyl-3,12-epoxy-12H-pyrano[4,3-j]-1,2-benzodioxepin-10-ol, hydrogen succinate], for which the “cellular iron content relative to initial cellular iron content” value in test [1] (FRDA fibroblasts, basal conditions, artesunate 25 μM for 48 h) is 62-79 % of initial cellular iron content. Moreover, in test [1] (FRDA fibroblasts, high iron condition (100 μM FAC), 25 μM artesunate for 48 h), the “decrease of cellular iron content” value was 71-79%. For the same compound, in test [1] (basal conditions, artesunate 25 μM for 48 h), the iron content entry is given as “light but non-significant increase”. Moreover, the iron content result in test [1] (high iron conditions (100 μM FAC), 25 μM artesunate) is listed as “decreased”. The “TfR1 palmitoylation relative to controls” value in test [2] (setting [8]) is reported as 80 % of controls. The TfR1 palmitoylation entry in test [2] (control cells, artesunate treatment) was “slight but non-significant decrease”. The “iron content of PBMC” value in test [5] (FRDA PBMCs) is on record as “two-fold decrease”. In addition, the “iron content of PBMC” value in test [5] (control PBMCs) is “two-fold decrease”. Further, the “TfR1 steady-state level relative to control values in artesunate-free medium” value in test [3] (FRDA fibroblasts, regular DMEM, artesunate 25 μM for 48 h) is on record as 136 % of control values. The “steady state level of TfR1” value in test [3] (FRDA fibroblasts) is given as “significantly decreased”. In test [3] (setting [9]), the TfR1 steady-state level entry is “slight increase”. Besides, the “decrease of membrane TfR1” value in test [4] (setting [8]) is listed as 15-30%. In test [4] (setting [9]), the “increase of membrane TfR1” value is 1.1 to 1.3 fold. Moreover, in test [6] (setting [8]), the “Tf recycling (Tf-Alexa555 signal)” value is “complete rescue”. In test [6] (control cells treated with artesunate), the Tf recycling result is reported as “slight delay”. Besides, in test [7] (FRDA fibroblasts), the “FBXL5 steady state level” value is reported as “returned to control values”, the “IRP1-2 steady state levels” value is listed as “not modified”, the “SOD2 steady state level” value is recorded as “decreased” and the “ferritin steady state level” value is “returned to control values”. Besides, in test [7] (control cells), the “FBXL5 steady state level” value was “not modified” and the “ferritin steady state level” value was “not modified”.

Source of the values: patent US11857532B2, “Treatment and prediction of therapeutic responses in patients suffering from Friedreich ataxia” (INSERM (Institut National de la Santé et de la Recherche …, priority 2018, dated 2024).
